For this experiment, the system named is C. albicans CaCi-8 + fluconazole, Alamar Blue growth, 48 h. Kind of experiment: resistant C. albicans growth inhibition with fluconazole, dose response, CaCi-8 strain, Alamar Blue fluorescence (AID 2423). For orientation: The colour change of resazurin is a common sign of viable cells or microbes.

Records with an inconclusive call do not appear. Calls of active or inactive are those of the source. How the calls were made is not given here.

The values below come from PubChem BioAssay AID2423 (Broad Institute, 2010).

Broadly, the EC50 is the concentration giving half of the maximal effect. Turning to `Cc1ccc(-n2c(Cc3ccccc3)n[nH]c2=S)c(C)c1`, the EC50 is 803 nM.

Turning to `COc1ccc(-c2cc(-c3cc(F)ccc3O)[nH]n2)cc1OC`, the EC50 is 13900 nM.

Consider `CC1(C)COCN1S(=O)(=O)c1ccc(C(=O)Nc2nnc(-c3ccc(Cl)s3)o2)cc1`, for which the EC50 was 484 nM.

Turning to `O=c1c2ccccc2nc(/C=C/c2ccc([N+](=O)[O-])o2)n1-c1ccc(O)cc1`, the EC50 is < 120 nM.

In the case of `CC(C)=CCc1c2c(c(O)c3c(=O)c4c(oc13)-c1cc(O)c(O)cc1OC4C=C(C)C)C=CC(C)(C)O2` (stereo not given), the EC50 is 13000 nM.

Take `O=C(Oc1c(Cl)cc(Cl)c2cccnc12)N1CCOCC1`: the EC50 was > 15000 nM (inactive).

For the compound `CCOC(=O)Cc1csc(NC(=O)c2ccc3ncsc3c2)n1`, the EC50 is 6820 nM.

On to `CC(=O)NNC(=S)NC(=O)C(c1ccccc1)c1ccccc1`, for which the EC50 is 3190 nM.

As to `Cc1ccc(C2(c3noc(CN4CCC(c5ccncc5)CC4)n3)CCCC2)cc1`, the EC50 is > 15000 nM (inactive).

Regarding `CCn1c(NC(=O)c2cccs2)nc2ccccc21`, the EC50 is 1280 nM.

Take `CCn1c(Sc2nc(C)nc3scc(-c4cccs4)c23)n[nH]c1=O`: the EC50 is 703 nM.

Regarding `Cc1cc(Cl)ccc1OCc1cn2cccnc2n1`, the EC50 was 5340 nM.

Turning to `COC(=O)c1c(C(=O)OC)c(-c2ccc(Cl)c(Cl)c2)n2c1CCC2`, the EC50 was 8980 nM.

With `CC(C)(C)c1ccc(OCCCC(=O)NNC(=O)c2ccccc2O)cc1`, the EC50 was 2560 nM.

In the case of `CCOC(=O)c1c(NC(=S)NCC2CCCO2)sc(C)c1C` (stereo not given), the EC50 was < 120 nM.

On to `CC(=O)N1CCC(=NNC(=O)c2cc3ccccc3cc2O)CC1`, for which the EC50 was 11900 nM.

As to `COc1ccccc1OCC(=O)N/N=C/C=C/c1ccc([N+](=O)[O-])o1`, the EC50 was 1220 nM.

Turning to `COc1ccc(OC)c(-n2c(CN3CCC(C(N)=O)CC3)nc3ccccc3c2=O)c1`, the EC50 is > 15000 nM (inactive).

Turning to `CCN(CC)c1cccc(OC2=NS(=O)(=O)c3ccccc32)c1`, the EC50 was 11000 nM.

In the case of `Cc1cccc(NC(=O)NNC(=O)c2cc3ccccc3cc2O)c1C`, the EC50 was > 15000 nM (inactive).

For the compound `COc1cccc(/C=N/Nc2ccc([N+](=O)[O-])cn2)c1O`, the EC50 is 1500 nM.

`O=[N+]([O-])c1ccc(O)c(Nc2ncnc3ccc(Br)cc23)c1`: the EC50 was 150 nM.

For `CC1Oc2cc3oc4c(O)c(O)ccc4c(=O)c3c(O)c2C1(C)C` (stereo not given), the EC50 is 14400 nM.

As to `COc1ccc(C(=O)NNC(=S)NC(=O)c2cccc([N+](=O)[O-])c2)cc1`, the EC50 was 1800 nM.

With `S=c1[nH]nc(-c2ccccc2)n1/N=C/c1cccs1`, the EC50 was 6130 nM.

For `Cc1ccc(C(=O)Nc2nc3ccccc3c(=O)s2)cc1`, the EC50 was 458 nM.

For `O=C(CNc1ccccc1F)N/N=C/C1CC=CCC1` (stereo not given), the EC50 was > 16000 nM (inactive).

Turning to `CCCC(=O)NC(c1ccco1)c1cc([N+](=O)[O-])c2cccnc2c1O` (stereo not given), the EC50 is 840 nM.

As to `O=S(=O)(Nc1cccc2cccnc12)c1ccc(S(=O)(=O)N2CCCC2)cc1`, the EC50 was 5620 nM.

`O=C(/C=C/c1cccs1)NC(=S)NNC(=O)c1ccccc1O`: the EC50 is 8540 nM.

`COc1cccc(C2CC(c3ccc(NS(C)(=O)=O)cc3)=NN2C(=O)c2ccccc2)c1OC` (stereo not given): the EC50 was 3730 nM.

`O=C(Nc1nnc(-c2ccccn2)o1)c1ccc(Br)cc1`: the EC50 is > 15000 nM (inactive).

As for `O=C(NCC(=O)N(CC1CCCO1)C(C(=O)NC1CCCCC1)c1ccccc1)c1ccco1` (stereo not given), the EC50 is > 15000 nM (inactive).

Take `Oc1ccc(CN2CCC(Cc3ccccc3)CC2)c2cccnc12`: the EC50 was 1340 nM.

With `CC(=O)c1ccc(NC(=O)Nc2cccc3ccccc23)cc1`, the EC50 was > 15000 nM (inactive).

`O=C1CC(c2ccccc2)CC(=NCCO)/C1=C(\O)CCCN1C(=O)c2ccccc2C1=O` (stereo not given): the EC50 was > 15000 nM (inactive).

Regarding `CN(CCCNC(=O)CCCOc1cc(=O)n(C)c2ccccc12)Cc1ccccc1`, the EC50 was > 16000 nM (inactive).

Consider `[O-][N+]1=c2ccc(Nc3ccccc3)cc2=NC12CCCCC2`, for which the EC50 is 750 nM.

Regarding `C#CC[N+](C)(C)CCCCCCCCCCCC`, the half-maximal effective concentration (EC50) was 8930 nM.

For the compound `COc1cccc(-n2c(SCc3cc(=O)oc4cc(O)c(O)cc34)nc3ccccc3c2=O)c1`, the EC50 is 5670 nM.

Consider `c1ccc(Sc2cccc3ccccc23)c(CNC2=NCCN2)c1`, for which the EC50 was 9520 nM.

As for `COc1ccc(C(=O)NC(=S)NNC(=O)CCc2ccccc2)cc1`, the EC50 was 3200 nM.

On to `CCN1/C(=C\c2ccc3cc(C)ccc3[n+]2CC)Sc2cc(C)c(C)cc21`, for which the EC50 is < 120 nM.

Regarding `COc1cc(OC)cc(C(=O)Oc2c(CN3CCOCC3)cc(Cl)c3cccnc23)c1`, the EC50 was 2620 nM.

With `O=C(NCCc1ccccc1)c1c(O)c2cccc3c2n(c1=O)CC3`, the EC50 was > 15000 nM (inactive).

Turning to `N#C/C(=C(/O)c1ccco1)c1nc2ccccc2[nH]1`, the EC50 was 676 nM.

Turning to `Cc1ccc(C)c(S(=O)(=O)N2CCN(Cc3ccc(O)c4ncccc34)CC2)c1`, the EC50 was 2120 nM.

As for `CCN(Cc1ccccc1)S(=O)(=O)c1ccc(C(=O)Nc2nnc(-c3ccccc3OC)o2)cc1`, the EC50 is < 120 nM.

Take `COCCSc1nnc(NC(=O)CCS(=O)(=O)c2ccccc2)s1`: the EC50 is 1860 nM.

In the case of `COc1cccc(/C=N/NC(=O)C(=O)Nc2ccccc2OC(F)(F)C(F)F)c1O`, the EC50 is 1020 nM.

In the case of `O=C(O)c1ccc(Nc2cnc3ccccc3n2)cc1`, the EC50 is > 16000 nM (inactive).

`CCc1ccc(OCC(=O)NNC(=S)NC(=O)C2CC2)c(Br)c1`: the EC50 is 1190 nM.

As to `Cc1ccc(C(=O)c2oc3nc(C)cc(C)c3c2N)cc1`, the EC50 is 5280 nM.

In the case of `Cc1n[nH]c(C)c1CCNCc1ccc(OCC(O)CN2CCCCC2)cc1` (stereo not given), the EC50 is > 15000 nM (inactive).

Regarding `Cc1cc2oc3ccc(NCCCn4ccnc4)cc3c(=O)c2cc1C`, the EC50 is 1990 nM.

For the compound `Cc1ccc(-c2nc3c(Cl)cc(Cl)cc3c(=O)n2O)cc1`, the EC50 is 1110 nM.

In the case of `CCCc1cc(C(=O)Nc2sc3c(c2C#N)CCC3)no1`, the EC50 was > 15000 nM (inactive).

On to `O=C(/C=C/c1cccc(Cl)c1)c1nc2ccccc2[nH]1`, for which the EC50 was 2580 nM.

On to `CCn1c(C)nc2cc(C(=O)N/N=C/c3ccc(O)c(O)c3O)ccc21`, for which the EC50 is 989 nM.

For `O=S(=O)(Cc1ccc(Cl)cc1)N1CCN(Cc2ccccc2)CC1`, the EC50 was > 16000 nM (inactive).

On to `Cc1cc(C(=O)Nc2sc3c(c2C#N)CCCC3)no1`, for which the EC50 was 979 nM.

`Cc1ccsc1C(=O)OCC(=O)Nc1nnc(-c2ccccc2)o1`: the EC50 is 3120 nM.

Turning to `Cc1ccc(C(=O)NC(=S)NNC(=O)CC#N)cc1`, the EC50 is > 15000 nM (inactive).

In the case of `CCC1=NN(C(=O)c2ccccc2O)C(O)(c2ccccc2)C1` (stereo not given), the EC50 is 7370 nM.

Consider `COc1ccc(OC)c2[nH]c(C(=O)N/N=C/c3ccccc3O)cc12`, for which the EC50 is 914 nM.

For `Nc1nonc1C(=O)N/N=C/c1cc(Br)ccc1O`, the EC50 was 9340 nM.

As to `CC[n+]1c(/C=C2\Sc3ccccc3N2C)ccc2cccc(C)c21`, the EC50 was < 120 nM.

With `CCCOc1cccc(-c2cc(C(=O)NNC(=S)NCC)c3ccccc3n2)c1`, the 50% effective concentration (EC50) is 891 nM.

Consider `COc1cccc(/C=N\NC(=O)c2ccc(Cn3cc(Br)c([N+](=O)[O-])n3)o2)c1O`, for which the EC50 was 5070 nM.

Regarding `O=C(N/N=C/c1ccccn1)c1cc(-c2ccc(Cl)cc2)nc2ccccc12`, the EC50 was 4330 nM.

Take `CCOc1ccc(N=Nc2ccc(O)c3ncccc23)cc1`: the EC50 was 1150 nM.

As to `O=C(/C=C/c1ccco1)Nc1cccc(-c2nc3ccccc3[nH]2)c1`, the EC50 is 1250 nM.

Regarding `OCCN1CCN(C(=S)NC2CCCC2)CC1`, the EC50 was > 16000 nM (inactive).

For the compound `CCOC(=O)c1ccc(NC(=O)Nc2ccn(C)n2)cc1`, the EC50 was 1510 nM.

As to `O=Cc1ccc(O)c2ncccc12`, the half-maximal effective concentration (EC50) was 1450 nM.

Regarding `Cc1cccc(C)c1OCC(=O)NNC(=S)NC(=O)C1CC1`, the EC50 is 950 nM.

Regarding `CCc1ccc2oc(-c3ccc(OC)cc3)cc(=Nc3c(C)n(C)n(-c4ccccc4)c3=O)c2c1`, the EC50 is 1540 nM.

In the case of `Cc1c(CCOC(=O)C23CC4(C)CC(C)(CC(C)(C4)C2)C3)sc[n+]1CC(=O)c1ccccc1`, the EC50 was > 15000 nM (inactive).

Consider `CCOC(=O)C1CCCN(c2cc(C)nc3cc(-c4ccc(F)cc4)nn23)C1` (stereo not given), for which the EC50 is > 16000 nM (inactive).

As to `COc1cccc(C(=O)Nc2nnc(-c3ccc(F)cc3)o2)c1`, the EC50 is 1690 nM.

For `Cc1cccc(-n2nc(C(=O)c3ccco3)cc(-c3nc4ccccc4[nH]3)c2=N)c1`, the EC50 was 6090 nM.

Regarding `O=C(N/N=C/c1ccc(O)c2ncccc12)c1cccc(Br)c1`, the EC50 is 1200 nM.

On to `COc1cc(OC)cc(N(C(=O)C2COc3ccccc3O2)C(C(=O)NC2CCCCC2)c2ccc(O)cc2)c1` (stereo not given), for which the EC50 is > 16000 nM (inactive).

Turning to `Cc1ccc(NC(=O)c2ccc([N+](=O)[O-])o2)cc1C`, the EC50 was 1130 nM.

`COc1ccc(C(=O)Oc2c(CN3CCOCC3)cc(Cl)c3cccnc23)cc1`: the EC50 was 9170 nM.

Regarding `COc1ccc(NC(=O)NNC(=O)c2cc3ccccc3cc2O)cc1`, the EC50 is > 16000 nM (inactive).

Turning to `COc1cc(C2C(C#N)=C(N)N(c3ccc(F)cc3)C3=C2S(=O)(=O)CC3)ccc1O` (stereo not given), the EC50 was > 16000 nM (inactive).

Turning to `O=C(Nc1ccccc1Cl)c1ccc([N+](=O)[O-])o1`, the EC50 was 693 nM.

For `CC(=O)c1sc(NC(=O)CCS(=O)(=O)c2ccccc2)nc1C`, the EC50 is 368 nM.

For the compound `CCOC(=O)c1cc([N+](=O)[O-])c([N+](=O)[O-])cc1NC(C)=O`, the EC50 was 692 nM.

For the compound `C=CC[C@@H]1C=C(C)C[C@H](C)C[C@H](OC)[C@H]2O[C@@](O)(C(=O)C(=O)N3CCCC[C@H]3C(=O)O[C@H](/C(C)=C/[C@@H]3CC[C@@H](O)[C@H](OC)C3)[C@H](C)[C@@H](O)CC1=O)[C@H](C)C[C@@H]2OC`, the EC50 is < 120 nM.

Take `O=c1c2ccccc2nc(-c2ccc(Cl)cc2Cl)n1O`: the EC50 was 1020 nM.

`COc1cc2c(cc1O)CC[n+]1cc3c(OC)c(OC)ccc3cc1-2`: the EC50 is > 16000 nM (inactive).

`O=C(N/N=C/c1ccccc1O)c1cccc(C(F)(F)F)c1`: the EC50 is 1840 nM.

Take `C(=C\c1ccccc1)/CN1CCN(c2ncnc3c2oc2ccccc23)CC1`: the EC50 is < 120 nM.
